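Exposure lasted 48 hours, with cells grown in 96-well plates and compounds tested at five concentrations. GI50: concentration for 50% inhibition of growth.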 Calls of active or inactive are those of the source. No stated cut-off is given here; in the data, active = GI50 up to about 1.1 µM and inactive = higher.
Columns and labels:
Assay in all cases: NCI tumour cell line growth inhibition, 48 h
SR = system: SR
A549 = system: A549
HT-29 = system: HT-29
SK-MEL-28 = system: SK-MEL-28
OVCAR-8 = system: OVCAR-8
LOX IMVI = system: LOX IMVI
COLO 205 = system: COLO 205
IGROV-1 = system: IGROV-1
CCRF-CEM = system: CCRF-CEM
A498 = system: A498
EKVX = system: EKVX
SK-MEL-2 = system: SK-MEL-2
NCI-H460 = system: NCI-H460
UACC-62 = system: UACC-62
RXF 393 = system: RXF 393
UO-31 = system: UO-31
UACC-257 = system: UACC-257
SF-268 = system: SF-268
Hs-578T = system: Hs-578T

Question: What does the source list for `CC(C)(C)C1CCC(O)(c2ccccc2)CC1` (stereo unspecified)?
Answer: GI50 (SR): 33.4 µM (inactive); GI50 (A549): > 100 µM (inactive); GI50 (HT-29): 74.3 µM (inactive); GI50 (SK-MEL-28): > 100 µM (inactive); GI50 (OVCAR-8): 88.3 µM (inactive); GI50 (LOX IMVI): 77.6 µM (inactive); GI50 (COLO 205): > 100 µM (inactive); GI50 (IGROV-1): > 100 µM (inactive); GI50 (CCRF-CEM): 92.9 µM (inactive); GI50 (A498): > 100 µM (inactive); GI50 (EKVX): > 100 µM (inactive); GI50 (SK-MEL-2): > 100 µM (inactive); GI50 (NCI-H460): > 100 µM (inactive); GI50 (UACC-62): > 100 µM (inactive); GI50 (RXF 393): 50.7 µM (inactive); GI50 (UO-31): > 100 µM (inactive); GI50 (UACC-257): 54.6 µM (inactive)

Question: Which results are given for `N#CCN1C(=O)c2cccc3cc([N+](=O)[O-])cc(c23)C1=O`?
Answer: GI50 (SR): 5.69 µM (inactive); GI50 (A549): 40.1 µM (inactive); GI50 (HT-29): 41.8 µM (inactive); GI50 (SK-MEL-28): 35.2 µM (inactive); GI50 (OVCAR-8): 38.9 µM (inactive); GI50 (LOX IMVI): 21.6 µM (inactive); GI50 (COLO 205): 35.3 µM (inactive); GI50 (IGROV-1): 42.9 µM (inactive); GI50 (CCRF-CEM): 24.7 µM (inactive); GI50 (A498): 47.1 µM (inactive); GI50 (EKVX): 74.8 µM (inactive); GI50 (SK-MEL-2): 0.745 µM (active); GI50 (NCI-H460): 29 µM (inactive); GI50 (SF-268): 52 µM (inactive); GI50 (UACC-62): 22.6 µM (inactive); GI50 (RXF 393): 28.4 µM (inactive); GI50 (UO-31): 23.4 µM (inactive); GI50 (UACC-257): 24.3 µM (inactive)

Question: `Cc1cc(C)c(-c2noc(-c3ccc(Cl)cc3)c2C2=NCCN2)c(C)c1` was tested. Which GI50 (SR) did it give?
Answer: 16.4 µM (inactive)

Question: And the GI50 (A549)?
Answer: 32.4 µM (inactive)

Question: And the GI50 (HT-29)?
Answer: 13.3 µM (inactive)

Question: And the GI50 (SK-MEL-28)?
Answer: 17.7 µM (inactive)

Question: What about the GI50 (OVCAR-8) of the same compound?
Answer: > 10 µM (inactive)

Question: What about the GI50 (LOX IMVI) of the same compound?
Answer: 20.3 µM (inactive)

Question: And the GI50 (COLO 205)?
Answer: 16.4 µM (inactive)

Question: What about the GI50 (IGROV-1) of the same compound?
Answer: 22.2 µM (inactive)

Question: What about the GI50 (CCRF-CEM) of the same compound?
Answer: 20.7 µM (inactive)

Question: What about the GI50 (EKVX) of the same compound?
Answer: 22.9 µM (inactive)

Question: What about the GI50 (SK-MEL-2) of the same compound?
Answer: 22.6 µM (inactive)

Question: And the GI50 (NCI-H460)?
Answer: 13.8 µM (inactive)

Question: And the GI50 (SF-268)?
Answer: 17.3 µM (inactive)

Question: What about the GI50 (UACC-62) of the same compound?
Answer: 16.8 µM (inactive)

Question: What about the GI50 (RXF 393) of the same compound?
Answer: 14.2 µM (inactive)

Question: What about the GI50 (UO-31) of the same compound?
Answer: 6.38 µM (inactive)

Question: And the GI50 (UACC-257)?
Answer: 17.5 µM (inactive)

Question: Which GI50 (SR) does the source give for `COc1ccc(NC(=O)C/C(C)=N\N=C(N)N)c([N+](=O)[O-])c1` here?
Answer: 23.3 µM (inactive)

Question: And the GI50 (A549)?
Answer: > 100 µM (inactive)

Question: And the GI50 (HT-29)?
Answer: > 100 µM (inactive)

Question: What about the GI50 (SK-MEL-28) of the same compound?
Answer: > 100 µM (inactive)

Question: What about the GI50 (OVCAR-8) of the same compound?
Answer: > 100 µM (inactive)

Question: What about the GI50 (LOX IMVI) of the same compound?
Answer: 33.9 µM (inactive)

Question: And the GI50 (COLO 205)?
Answer: > 100 µM (inactive)

Question: And the GI50 (IGROV-1)?
Answer: > 100 µM (inactive)

Question: What about the GI50 (CCRF-CEM) of the same compound?
Answer: > 100 µM (inactive)

Question: What about the GI50 (A498) of the same compound?
Answer: > 100 µM (inactive)

Question: And the GI50 (EKVX)?
Answer: > 100 µM (inactive)

Question: And the GI50 (SK-MEL-2)?
Answer: > 100 µM (inactive)

Question: And the GI50 (NCI-H460)?
Answer: > 100 µM (inactive)

Question: What about the GI50 (SF-268) of the same compound?
Answer: > 100 µM (inactive)

Question: What about the GI50 (UACC-62) of the same compound?
Answer: > 100 µM (inactive)

Question: What about the GI50 (RXF 393) of the same compound?
Answer: > 100 µM (inactive)

Question: And the GI50 (UO-31)?
Answer: > 100 µM (inactive)

Question: And the GI50 (UACC-257)?
Answer: > 100 µM (inactive)

Question: Which GI50 (SR) does the source give for `Cc1ccc2nc(CN(CCO)CCO)cc(=O)n2c1` here?
Answer: > 100 µM (inactive)

Question: And the GI50 (A549)?
Answer: > 100 µM (inactive)

Question: And the GI50 (HT-29)?
Answer: > 100 µM (inactive)

Question: And the GI50 (SK-MEL-28)?
Answer: > 100 µM (inactive)

Question: And the GI50 (OVCAR-8)?
Answer: > 100 µM (inactive)

Question: What about the GI50 (LOX IMVI) of the same compound?
Answer: > 100 µM (inactive)

Question: What about the GI50 (COLO 205) of the same compound?
Answer: > 100 µM (inactive)

Question: What about the GI50 (IGROV-1) of the same compound?
Answer: > 100 µM (inactive)

Question: What about the GI50 (CCRF-CEM) of the same compound?
Answer: > 100 µM (inactive)

Question: What about the GI50 (EKVX) of the same compound?
Answer: > 100 µM (inactive)

Question: What about the GI50 (SK-MEL-2) of the same compound?
Answer: > 100 µM (inactive)

Question: What about the GI50 (NCI-H460) of the same compound?
Answer: > 100 µM (inactive)

Question: And the GI50 (Hs-578T)?
Answer: > 100 µM (inactive)

Question: And the GI50 (SF-268)?
Answer: > 100 µM (inactive)

Question: And the GI50 (UACC-62)?
Answer: > 100 µM (inactive)

Question: What about the GI50 (UO-31) of the same compound?
Answer: > 100 µM (inactive)

Question: And the GI50 (UACC-257)?
Answer: > 100 µM (inactive)

Question: How did the GI50 (SR) turn out when `N#CC1(Cc2ccc(N)cc2)c2ccccc2C=CN1C(=O)c1ccccc1` (stereo unspecified) was run?
Answer: 24.8 µM (inactive)

Question: What about the GI50 (A549) of the same compound?
Answer: 35.7 µM (inactive)

Question: And the GI50 (HT-29)?
Answer: 36.1 µM (inactive)

Question: What about the GI50 (SK-MEL-28) of the same compound?
Answer: 79.3 µM (inactive)

Question: And the GI50 (OVCAR-8)?
Answer: 40.6 µM (inactive)

Question: What about the GI50 (LOX IMVI) of the same compound?
Answer: 51.6 µM (inactive)

Question: And the GI50 (COLO 205)?
Answer: 27.3 µM (inactive)

Question: What about the GI50 (IGROV-1) of the same compound?
Answer: 77.6 µM (inactive)

Question: And the GI50 (CCRF-CEM)?
Answer: 29 µM (inactive)

Question: What about the GI50 (A498) of the same compound?
Answer: 40 µM (inactive)

Question: What about the GI50 (EKVX) of the same compound?
Answer: 38.7 µM (inactive)

Question: What about the GI50 (SK-MEL-2) of the same compound?
Answer: 9.29 µM (inactive)

Question: And the GI50 (SF-268)?
Answer: 40.6 µM (inactive)

Question: And the GI50 (UACC-62)?
Answer: 30.8 µM (inactive)

Question: What about the GI50 (RXF 393) of the same compound?
Answer: 27.4 µM (inactive)

Question: And the GI50 (UO-31)?
Answer: 19.8 µM (inactive)

Question: What about the GI50 (UACC-257) of the same compound?
Answer: 39.7 µM (inactive)

Question: For `CN(C)/C=N/c1nc2c(ncn2C2OC(CO)C(O)C2O)c(=O)[nH]1` (stereo unspecified), which GI50 (SR) is on record?
Answer: > 100 µM (inactive)

Question: And the GI50 (A549)?
Answer: > 100 µM (inactive)

Question: What about the GI50 (HT-29) of the same compound?
Answer: > 100 µM (inactive)

Question: What about the GI50 (OVCAR-8) of the same compound?
Answer: > 100 µM (inactive)

Question: And the GI50 (COLO 205)?
Answer: > 100 µM (inactive)

Question: And the GI50 (IGROV-1)?
Answer: > 100 µM (inactive)

Question: What about the GI50 (A498) of the same compound?
Answer: > 100 µM (inactive)

Question: What about the GI50 (EKVX) of the same compound?
Answer: > 100 µM (inactive)

Question: What about the GI50 (SK-MEL-2) of the same compound?
Answer: > 100 µM (inactive)

Question: What about the GI50 (NCI-H460) of the same compound?
Answer: > 100 µM (inactive)

Question: What about the GI50 (SF-268) of the same compound?
Answer: > 100 µM (inactive)

Question: And the GI50 (UACC-62)?
Answer: > 100 µM (inactive)

Question: What about the GI50 (RXF 393) of the same compound?
Answer: > 100 µM (inactive)

Question: What about the GI50 (UO-31) of the same compound?
Answer: > 100 µM (inactive)

Question: What about the GI50 (UACC-257) of the same compound?
Answer: > 100 µM (inactive)

Question: Which results are given for `C#CCNC(=O)NCCCCC(NC(C)=O)C(=O)NCc1ccccc1` (stereo unspecified)?
Answer: GI50 (SR): > 100 µM (inactive); GI50 (A549): > 100 µM (inactive); GI50 (HT-29): > 100 µM (inactive); GI50 (SK-MEL-28): > 100 µM (inactive); GI50 (OVCAR-8): > 100 µM (inactive); GI50 (LOX IMVI): > 100 µM (inactive); GI50 (COLO 205): > 100 µM (inactive); GI50 (IGROV-1): > 100 µM (inactive); GI50 (CCRF-CEM): > 100 µM (inactive); GI50 (A498): > 100 µM (inactive); GI50 (EKVX): > 100 µM (inactive); GI50 (NCI-H460): > 100 µM (inactive); GI50 (SF-268): > 100 µM (inactive); GI50 (UACC-62): > 100 µM (inactive); GI50 (RXF 393): > 100 µM (inactive); GI50 (UO-31): > 100 µM (inactive); GI50 (UACC-257): > 100 µM (inactive)

Source: ChEMBL document CHEMBL1201862, “PubChem BioAssay data set” (2004)
